Results taken from publication PMC5790502, “The anti-rheumatic drug, leflunomide, synergizes with MEK inhibition to suppress melanoma growth” (Oncotarget, 2017).

Legend:
SKmel28 melanoma cells = assay: Cell viability assay (CellTiter-Glo); format: cell-based; conditions: Homo sapiens, SK-MEL-28, 72 hours treatment
Protocol: (§1) Cells that had been seeded 24 hours earlier on poly-L-lysine coated 96-well plates (Sigma-Aldrich) to subconfluency, were treated with drugs at the indicated concentrations for 72 hours. Cytochalasin D (Sigma Aldrich) was used as a positive control. All conditions were repeated in triplicate. Cell viability was determined on day 5 using the CellTiter-Glo Luminescence assay (Promega), according to the manufacturer’s instructions. Luminescence from the plate was read on a BMG LabTech Omega Series plate reader (data analyzed using OMEGA software). Cell viability was calculated as a percentage of the mean vehicle control.
(§2) For pharmacological analysis, IC50 values were generated using Prism Graphpad software (Graphpad Software, Inc.) and calculated using a nonlinear regression model. Combinatorial drug synergy was assessed by determination of combination index (CI), which was calculated using CalcuSyn (Biosoft) software using the median effects methods as described by Chou and Talalay, CI values less than 0.7 indicated synergy, 0.7–0.9 weak synergy, 0.9–1.1 additivity, 1.1–1.45 indicated weak antagonism and greater than 1.45 antagonism.

M229 melanoma cells = assay: Cell viability assay (CellTiter-Glo); format: cell-based; conditions: Homo sapiens, 72 hours treatment
Protocol: as §1, §2

A375 melanoma cells [1] = assay: Cell viability assay (CellTiter-Glo); format: cell-based; conditions: Homo sapiens, A-375, 72 hours treatment
Protocol: as §1, §2

M296 melanoma cells = assay: Cell viability assay (CellTiter-Glo); format: cell-based; conditions: Homo sapiens, 72 hours treatment
Protocol: as §1, §2

SKmel5 melanoma cells = assay: Cell viability assay (CellTiter-Glo); format: cell-based; conditions: Homo sapiens; for IC50: SK-MEL-5, 72 hours treatment
Protocol: as §1, §2

M202 melanoma cells = assay: Cell viability assay (CellTiter-Glo); format: cell-based; conditions: Homo sapiens, 72 hours treatment
Protocol: as §1, §2

[2] = tested on: rhabdomyosarcoma cells (RD-1); assay: Cell viability assay (CellTiter-Glo); format: cell-based; conditions: Homo sapiens; for IC50: RD1, 72 hours treatment
Protocol: as §1, §2

M285 melanoma cells = assay: Cell viability assay (CellTiter-Glo); format: cell-based; conditions: Homo sapiens, 72 hours treatment
Protocol: as §1, §2

M375 melanoma cells = assay: Cell viability assay (CellTiter-Glo); format: cell-based; conditions: Homo sapiens
Protocol: as §1, §2

phospho-ERK = assay: Western blot of phospho-ERK; format: cell-based, human; conditions: A375 and M202 cells; 0.1 or 1 µM selumetinib
Protocol: A375 melanoma cells were seeded and treated for 72 hours in varying drug conditions. Total protein extracts were then made using high SDS content lysis buffer (60 mM sucrose, 65 mM Tris-HCl, pH 6.8. 3% SDS). Protein concentration was determined using the DC protein assay (BIORAD). 10 μg of whole-cell protein lysate was loaded onto a 10% SDS-PAGE gel and transferred onto polyvinylidene difluoride membranes (Bio-Rad). A standard Western blot protocol was used for detection of the specific proteins as previously described.
Antibodies used included; Rabbit polyclonal phospho-ERK (1:1000, Cell Signalling Technology); Rabbit polyclonal phospho-p44/42 MAPK (1:1000, ERK1/2; Cell Signalling Technology); Mouse monoclonal HSC-70 (1:1000, Santa-Cruz Biotechnology); Rabbit polyclonal Mcl-1 (1:500, Santa-Cruz Biotechnology); Rabbit polyclonal anti-BIM (1:500, Merck-Millipore); Rabbit polyclonal PARP (1:1000, Cell Signalling Technology); Rabbit polyclonal PUMA (1:1000, Cell Signalling Technology); anti-rabbit IgG HRP linked secondary antibody (1:2000, Jackson ImmunoResearch); Anti-mouse IgG HRP linked secondary antibody (1:2000, Jackson ImmunoResearch); All anti-rabbit IgG HRP linked secondary antibody (1:2000, Cell Signalling Technology).

M375 melanoma tumors = assay: Mouse xenograft study; format: in vivo; conditions: M375 xenograft in SCID mice, selumetinib 30 mg/kg OG; for tumor volume: 12 days, leflunomide 7.5 mg/kg IP daily, vs vehicle control
Protocol: 8–10-week-old female severe immunodeficiency (SCID) mice were purchased from Charles River Laboratories. All procedures were performed under UK Home Office approved protocols and the University of East Anglia local guidelines. Experiments were conducted strictly in accordance with the locally approved animal handling protocol.
A total of 3 × 10^6 M375 melanoma cells were injected subcutaneously into 40 SCID mice. After approximately 4 weeks when the tumors were palpable, the mice were randomized into 4 arms. The 4 arms were; vehicle alone, leflunomide alone, selumetinib alone and leflunomide and selumetinib in combination. There were 10 mice in each arm. The drug regime was administered for 12 days. Leflunomide was administered by intraperitoneal (IP) injection daily at 7.5 mg/kg. Selumetinib was administered by oral gavage (OG) twice daily at 30 mg/kg for the first two days and was then delivered once daily thereafter. The tumor volume was measured every three days with calipers. Tumor volume was measured by the formula 0.52 (length × width^2). At the end of the experiment, the mice were culled and the excised tumors were weighed.

A375 melanoma cells [3] = assay: Cell cycle analysis (PI staining, flow cytometry); format: cell-based, human; conditions: 72 hours
Protocol: Cell cycle analysis was carried out as previously detailed. In brief, A375 melanoma cells were seeded in 24-well plates at a density of 4,600 cells per well. After 24 hours, the cells were treated with vehicle, 25, 50 and 100 µM of Leflunomide. After 72 hours, the cells were trypsinised and pelleted along with the culture medium. Cells were washed in PBS and fixed in ice-cold absolute ethanol. Cells were then stained with 200 µl PI/RNase A solution (Cell Signalling Technology). Cells were analyzed using a BD Accuri™ C6 flow cytometer (BD Biosciences) and the data was analyzed using the BD Accuri™ C6 Software and FlowJo (FLOWJO, LLC).

A375 melanoma cells [4] = assay: Mitochondrial membrane potential assay (JC-1); format: cell-based, human; conditions: rising concentrations of leflunomide (25, 50, 100 μM), 72 hours
Protocol: (§3) www.impactjournals.com/oncotarget/ Oncotarget, Supplementary Materials 2017 The anti-rheumatic drug, leflunomide, synergizes with MEK inhibition to suppress melanoma growth
(§4) Mitochondrial membrane potential [ΔΨM] assay REFERENCES
(§5) A375 melanoma cells were seeded in 12 well plates at 1. Tap WD, Gong KW, Dering J, Tseng Y, Ginther C, Pauletti a density of 10,000 cells per 1 ml of medium per well. After G, Glaspy JA, Essner R, Bollag G, Hirth P, Zhang C, Slamon 24 hours, the cells were treated with vehicle or leflunomide. DJ. […] Haluska FG, Tsao H, Wu H, Haluska FS, Lazar A, Goel V. of fresh PBS before being analyzed on the BD AccuriTM C6 Genetic alterations in signaling pathways in melanoma. […] Samples were exposed to 488 nm excitation, Cancer Res. 2006; 12:2301s–2307s. with JC-1 green monomer fluorescence detected at 533/30 3. von Euw E, Atefi M, Attar N, Chu C, Zachariah S, Burgess BL, nm in the FL1 channel and JC-1 red aggregates fluorescence Mok S, Ng C, Wong DJ, Chmielowski B, Lichter DI, Koya RC, detected at 585/20 nm in the FL2 channel. […] Data selective MEK inhibitor TAK733 against cutaneous and uveal was analyzed using the BD AccuriTM C6 Software. melanoma cell lines. […]
(§6) BD AccuriTM C6 flow cytometer (with green fluorescence 6. Atefi M, Titz B, Tsoi J, Avramis E, Le A, Ng C, Lomova A, Lassen detected in the FL1 channel). […]

A375 melanoma cells [5] = assay: Annexin V apoptosis assay; format: cell-based, human; conditions: 72 hours
Protocol: Apoptosis was assessed using an Annexin V-FITC Apoptosis detection kit FITC (eBioscience), according to the manufacturer’s instructions. Briefly, cells were seeded in 24-well plates at a density of 4,600 cells per well. After 24 hours, the cells were treated with vehicle or leflunomide (at concentrations of 25, 50 and 100 µM). After 72 hours cells were trypsinised, washed in PBS and treated with fluorochrome-conjugated Annexin V and propidium iodide as indicated in the protocol. Cells were analyzed on the BD Accuri™ C6 flow cytometer and the data analyzed using the instrument software.

A375 melanoma cells [6] = assay: BrdU proliferation assay; format: cell-based, human; conditions: increasing concentrations of leflunomide, 72 hours
Protocol: A375 melanoma cells were seeded in 12-well plates at a density of 10,000 cells and grown on gelatin-coated coverslips. After 24 hours leflunomide was added to cells at 12.5, 25 or 50 μM (or a vehicle control) for 72 hours. Cells were pulsed for 2 hours with BrdU (Sigma-Aldrich) at a final working concentration of 10 μM. Cells were permeabilised in 2N-HCL + 0.5% Triton X-100. Primary BrdU antibody diluted 1:100 in 1% goat serum was applied and incubated overnight at 4°C followed by Alexa Fluor-488 anti-mouse secondary antibody Cells were counterstained with DAPI. Cells were mounted onto slides using hydromount and examined under a Zeiss AxioPlan 2ie widefield microscope with an AxioCam HRm CCD camera. Images were analyzed using Image J software.

[7] = tested on: Primary human melanocytes adult (HEMa-LP); assay: Cell viability assay (CellTiter-Glo); format: cell-based; conditions: Melanocyte, 72 hours treatment
Protocol: as §1, §2

[8] = tested on: Human embryonic kidney cells (HEK-293); assay: Cell viability assay (CellTiter-Glo); format: cell-based; conditions: HEK293, 72 hours treatment
Protocol: as §1, §2

A375 melanoma cells [9] = assay: Mitotracker green staining (mitochondrial mass); format: cell-based, human
Protocol: as §3, §4, §5, §6

CCCS(=O)(=O)Nc1ccc(F)c(C(=O)c2c[nH]c3ncc(-c4ccc(Cl)cc4)cc23)c1F [Vemurafenib, vemurafenib]
IC50 (SKmel28 melanoma cells): 800 nM
IC50 (M229 melanoma cells): 300 nM
IC50 (A375 melanoma cells [1]): 700 nM
IC50 (M296 melanoma cells): 2000 nM
IC50 (SKmel5 melanoma cells): 150 nM
IC50 (M202 melanoma cells): 1700 nM

Cn1cnc2c(F)c(Nc3ccc(Br)cc3Cl)c(C(=O)NOCCO)cc21 [Selumetinib, selumetinib]
IC50 (SKmel28 melanoma cells): 430 nM
viability at 1 µM ([2]; RD1, 1 μM selumetinib, read-out: cell viability (relative to vehicle control)): 55%
IC50 [2]: 1050 nM
IC50 (M229 melanoma cells): 200 nM
IC50 (M285 melanoma cells): 500 nM
IC50 (M375 melanoma cells; M375, 72 hours treatment): 100 nM
IC50 (M375 melanoma cells; M375 melanoma cell line, Meki alone, combinatorial viability study (Figure 4A(i))): 64 nM
IC50 (A375 melanoma cells [1]): 190 nM
IC50 (M296 melanoma cells): 470 nM
viability at 1 µM (SKmel5 melanoma cells; SK-MEL-5, 1 μM selumetinib, read-out: cell viability (relative to vehicle control)): 51.8%
IC50 (SKmel5 melanoma cells): 1010 nM
IC50 (M202 melanoma cells): 500 nM
amount of pERK protein (phospho-ERK): decreases in a dose-dependent manner
tumor volume (M375 melanoma tumors): significantly reduced the average tumor volume

Cc1oncc1C(=O)Nc1ccc(C(F)(F)F)cc1 [Leflunomide, leflunomide]
cells in G1 (G0-G1 phase) (A375 melanoma cells [3]; 25 μM leflunomide): 46.56%
cells in sub-G1 (A375 melanoma cells [3]; 25 μM leflunomide): 5.36%
reduction of percentage of cells in G2-M compared to the DMSO control (A375 melanoma cells [3]; 25 μM leflunomide): 50%
cells in G1 (G0-G1 phase) (A375 melanoma cells [3]; 50 μM leflunomide): 55.05%
cells in S-phase (A375 melanoma cells [3]; 50 μM leflunomide): 30.41%
cells in sub-G1 (A375 melanoma cells [3]; 50 μM leflunomide): 9.12%
cells in G1 (G0-G1 phase) (A375 melanoma cells [3]; 100 μM leflunomide): 73.56%
cells in S-phase (A375 melanoma cells [3]; 100 μM leflunomide): 11.60%
cells in sub-G1 (A375 melanoma cells [3]; 100 μM leflunomide): 11.84%
mitochondrial membrane potential (JC-1, FL-1 channel) (A375 melanoma cells [4]): depolarized
early apoptotic cells (quadrant Q3) (A375 melanoma cells [5]; 50 μM leflunomide): 49.3%
late apoptotic/necrotic cells (quadrant Q2) (A375 melanoma cells [5]; 50 μM leflunomide): 44.2%
early apoptotic cells (quadrant Q3) (A375 melanoma cells [5]; 100 μM leflunomide): 28.5%
late apoptotic/necrotic cells (quadrant Q2) (A375 melanoma cells [5]; 100 μM leflunomide): 19.1%
viability at 25 µM (A375 melanoma cells [5]; Homo sapiens, A-375, 25μM leflunomide, read-out: viable cells (quadrant Q4)): 68%
viability at 50 µM (A375 melanoma cells [5]; Homo sapiens, A-375, 50μM leflunomide, read-out: viable cells (quadrant Q4)): 5.91%
viability at 100 µM (A375 melanoma cells [5]; Homo sapiens, A-375, 100μM leflunomide, read-out: viable cells (quadrant Q4)): 51.4%
number of BrdU positive (proliferating) cells (A375 melanoma cells [6]): dose-dependent decrease
IC50 (SKmel28 melanoma cells): 167000 nM
IC50 [7]: 148000 nM
IC50 [2]: 84200 nM
IC50 (M229 melanoma cells): 58200 nM
IC50 (M285 melanoma cells): 61500 nM
IC50 (M375 melanoma cells; M375, 72 hours treatment): 64100 nM
IC50 (A375 melanoma cells [1]): 57400 nM
IC50 (M296 melanoma cells): 112000 nM
IC50 [8]: 48100 nM
IC50 (SKmel5 melanoma cells): 122000 nM
IC50 (M202 melanoma cells): 68100 nM
increase in the time to reach 5000 events by flow cytometry (sample cell density) (A375 melanoma cells [9]; 100 μM leflunomide relative to the 25 μM and 50 μM treated samples): 3 fold
increase in the amount of green fluorescence (Mitotracker green) compared to the DMSO control (A375 melanoma cells [9]; 100 μM leflunomide, 72 hours): 3 fold
tumor volume (M375 melanoma tumors): did not reduce tumor volume
tumor weight (M375 melanoma tumors; excised at end of 12-day treatment, leflunomide 7.5 mg/kg IP): did not reduce the tumor volume or weight
